This note sets out measurements from the NIST ThermoML archive (doi:10.1016/j.jct.2008.09.020).

Values joined by “and” are separate entries in the source; they are usually repeats but may differ in a detail not shown here. Identical values can stand only once. Numbers after ± are expanded uncertainties.

The conditions of this data set: 313.15 K; Liquid; Ebulliometric method (Recirculating still).

The vapor or sublimation pressure is the pressure of vapour in equilibrium with the condensed phase. As to `CCOC(C)(C)C` [2-ethoxy-2-methylpropane], the “vapor or sublimation pressure” value was 31.63 ± 0.17 kPa and 31.64 ± 0.17 kPa.

For the compound `C=CCCCC` [hex-1-ene], the “vapor or sublimation pressure” value was 44.96 ± 0.28 kPa and 44.94 ± 0.28 kPa.

In the case of `Cc1ccccc1` [toluene], the “vapor or sublimation pressure” value was 7.869 ± 0.07 kPa and 7.872 ± 0.07 kPa.
